Laboratory results taken from US20110053916A1 (Vertex Pharmaceuticals Incorporated, priority 2009, published 2011).
Structures can show the parent of a compound that is named as a salt.

These molecules were tested against T1, PknB (Mycobacterium tuberculosis, UniProt P9WI81) (assay: biochemical). Conditions: not given.
T1 construct: made in house
Parameters: species or system M. tuberculosis

T1 sequence (P9WI81 whole entry): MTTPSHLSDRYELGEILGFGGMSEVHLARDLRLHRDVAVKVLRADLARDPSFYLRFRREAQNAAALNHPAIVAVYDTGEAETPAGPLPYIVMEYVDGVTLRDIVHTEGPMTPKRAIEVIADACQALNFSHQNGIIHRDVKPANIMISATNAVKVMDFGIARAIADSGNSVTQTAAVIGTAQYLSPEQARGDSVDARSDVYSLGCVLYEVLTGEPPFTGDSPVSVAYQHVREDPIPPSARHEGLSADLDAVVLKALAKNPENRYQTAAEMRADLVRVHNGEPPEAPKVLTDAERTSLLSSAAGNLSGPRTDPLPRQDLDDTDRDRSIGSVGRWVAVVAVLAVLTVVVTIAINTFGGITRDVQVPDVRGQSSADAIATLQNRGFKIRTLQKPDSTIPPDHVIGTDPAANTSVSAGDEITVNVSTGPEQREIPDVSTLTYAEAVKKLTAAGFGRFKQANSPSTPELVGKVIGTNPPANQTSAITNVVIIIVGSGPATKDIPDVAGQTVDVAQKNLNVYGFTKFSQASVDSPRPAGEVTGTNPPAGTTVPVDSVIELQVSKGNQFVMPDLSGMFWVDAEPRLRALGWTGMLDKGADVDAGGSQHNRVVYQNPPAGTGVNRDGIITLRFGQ

Row | SMILES | Ki Values | Ki
1 | C#Cc1cnc(-c2ccc(C(=O)OC)s2)nc1Nc1cc(C2CC2)[nH]n1 [Compound 151, Methyl 5-(4-(5-cyclopropyl-1H-pyrazol-3-ylamino)-5-ethynylpyrimidin-2-yl)thiophene-2-carboxylate hydrochloride] | A**, A* | –
2 | COC(=O)c1ccc(-c2ncc(Cl)c(Nc3cc(C4CC4)n[nH]3)n2)s1 [Compound 154, Methyl5-(5-chloro-4-(3-cyclopropyl-1H-pyrazol-5-ylamino)pyrimidin-2-yl)thiophene-2-carboxylate hydrochloride] | – | 10 to 50 nM

Same assay, conditions: 3 nM PknB, 6 uM GarA, 3 μM ATP, 30 min; competitive tight-binding fit; several symbols in a cell = repeat determinations

Row | SMILES | Ki Values
3 | C[C@H](O)c1ccc(-c2ncc(Cl)c(Nc3cc(C4CC4)[nH]n3)n2)s1 [Compound 132, (S)-1-(5-(4-(5-cyclopropyl-1H-pyrazol-3-ylamino)-5-chloropyrimidin-2-yl)thiophen-2-yl)ethanol] | A**, A*
4 | O=C(O)c1cccc(-c2ncc(Cl)c(Nc3cc(C4CC4)[nH]n3)n2)c1 [Compound 142, 3-[5-chloro-4-[(5-cyclopropyl-1H-pyrazol-3-yl)amino]-pyrimidin-2-yl]benzoic acid] | A*, A, B**, B**
5 | CC(=O)c1ccc(-c2ncc(Br)c(Nc3cc(C4CC4)[nH]n3)n2)s1 [Compound 165, 1-[5-[5-bromo-4-[(5-cyclopropyl-1H-pyrazol-3-yl)amino]-pyrimidin-2-yl]-2-thienyl]ethanone] | A**, A*
6 | C#Cc1cnc(-c2ccc(CNC(=O)OC(C)(C)C)s2)nc1Nc1cc(C2CC2)[nH]n1 [Compound 168, Tert-butyl (5-(4-(5-cyclopropyl-1H-pyrazol-3-ylamino)-5-ethynylpyrimidin-2-yl)thiophen-2-yl)methylcarbamate] | B**, B**, B
7 | C#Cc1cnc(N2CC[C@H](NC(=O)OC(C)(C)C)C2)nc1Nc1cc(C2CC2)n[nH]1 [Compound 169, tert-butyl [[1-[4-[(5-cyclopropyl-2H-pyrazol-3-yl)amino]-5-ethynyl-pyrimidin-2-yl]pyrrolidin-3-yl]amino]formate] | C, D
8 | C#Cc1cnc(N2CCCCC2)nc1Nc1cc(C2CC2)n[nH]1 [Compound 172, N-(5-Cyclopropyl-1H-pyrazol-3-yl)-5-ethynyl-2-(piperidin-1-yl)pyrimidin-4-amine] | A, B**, B**

Same assay, conditions: 3 nM PknB, 6 uM GarA, 3 μM ATP, 30 min; competitive tight-binding fit; several symbols in a cell = repeat determinations; read-out: Ki Values

Row | SMILES | Ki
9 | CNS(=O)(=O)c1cccc(-c2ncc(Cl)c(Nc3cc(C4CC4)[nH]n3)n2)c1 [Compound 127, 3-[5-chloro-4-[(5-cyclopropyl-1H-pyrazol-3-yl)amino]-pyrimidin-2-yl]-N-methyl-benzenesulfonamide] | 10 to 50 nM
10 | C#Cc1cnc(-c2ccc(CC#N)s2)nc1Nc1cc(C2CC2)n[nH]1 [Compound 130, 2-(5-(4-(3-Cyclopropyl-1H-pyrazol-5-ylamino)-5-ethynylpyrimidin-2-yl)thiophen-2-yl)acetonitrile] | 1 to 10 nM
11 | CN(CCO)S(=O)(=O)c1cccc(-c2ncc(Cl)c(Nc3cc(C4CC4)[nH]n3)n2)c1 [Compound 134, 3-[5-chloro-4-[(5-cyclopropyl-1H-pyrazol-3-yl)amino]-pyrimidin-2-yl]-N-(2-hydroxyethyl)-N-methyl-benzenesulfonamide] | 10 to 50 nM
12 | O=S(=O)(c1ccc(-c2ncc(Cl)c(Nc3cc(C4CC4)[nH]n3)n2)s1)N1CCNCC1 [Compound 135, 5-chloro-N-(5-cyclopropyl-1H-pyrazol-3-yl)-2-(5-piperazin-1-ylsulfonyl-2-thienyl)-pyrimidin-4-amine] | 10 to 50 nM
13 | CC(=O)c1ccc(-c2ncc(F)c(Nc3cc(C4CC4)[nH]n3)n2)s1 [Compound 137, 1-(5-(4-(5-cyclopropyl-1H-pyrazol-3-ylamino)-5-fluoropyrimidin-2-yl)thiophen-2-yl)ethanone] | 10 to 50 nM
14 | N#Cc1ccc(-c2ncc(Cl)c(Nc3cc(C4CC4)[nH]n3)n2)s1 [Compound 140, 5-(5-chloro-4-(5-cyclopropyl-1H-pyrazol-3-ylamino)pyrimidin-2-yl)thiophene-2-carbonitrile] | 10 to 50 nM
15 | N#CCc1ccc(-c2ncc(Cl)c(Nc3cc(C4CC4)n[nH]3)n2)s1 [Compound 143, 2-(5-(5-chloro-4-(3-cyclopropyl-1H-pyrazol-5-ylamino)pyrimidin-2-yl)thiophen-2-yl)acetonitrile] | 1 to 10 nM
16 | Cc1cnc(-c2ccc(S(N)(=O)=O)s2)nc1Nc1cc(C2CC2)n(C)n1 [Compound 150, 5-[4-[(5-cyclopropyl-1-methyl-pyrazol-3-yl)amino]-5-methyl-pyrimidin-2-yl]thiophene-2-sulfonamide] | > 4000 nM
17 | O=S(=O)(NC1CCOC1)c1ccc(-c2ncc(Cl)c(Nc3cc(C4CC4)[nH]n3)n2)s1 (stereo not shown) [Compound 152, 5-[5-chloro-4-[(5-cyclopropyl-1H-pyrazol-3-yl)amino]-pyrimidin-2-yl]-N-tetrahydrofuran-3-yl-thiophene-2-sulfonamide] | 10 to 50 nM
18 | C#Cc1cnc(-c2ccc(S(C)(=O)=O)cc2)nc1Nc1cc(C2CC2)[nH]n1 [Compound 153, N-(5-Cyclopropyl-1H-pyrazol-3-yl)-5-ethynyl-2-(4-(methylsulfonyl)phenyl)pyrimidin-4-amine] | 10 to 50 nM
19 | NS(=O)(=O)c1ccccc1-c1ncc(Cl)c(Nc2cc(C3CC3)[nH]n2)n1 [Compound 155, 2-[5-chloro-4-[(5-cyclopropyl-1H-pyrazol-3-yl)amino]-pyrimidin-2-yl]benzenesulfonamide] | > 4000 nM
20 | O=C(O)c1ccc(-c2ncc(Cl)c(Nc3cc(C4CC4)n[nH]3)n2)s1 [Compound 156, 5-(5-chloro-4-(3-cyclopropyl-1H-pyrazol-5-ylamino)pyrimidin-2-yl)thiophene-2-carboxylic acid] | 50 to 100 nM
21 | C#Cc1cnc(-c2ccc(C#N)s2)nc1Nc1cc(C2CC2)[nH]n1 [Compound 157, 5-(4-(5-Cyclopropyl-1H-pyrazol-3-ylamino)-5-ethynylpyrimidin-2-yl)thiophene-2-carbonitrile] | 1 to 10 nM
22 | O=S(=O)(NCC(F)(F)F)c1ccc(-c2ncc(Cl)c(Nc3cc(C4CC4)[nH]n3)n2)s1 [Compound 158, 5-[5-chloro-4-[(5-cyclopropyl-1H-pyrazol-3-yl)amino]-pyrimidin-2-yl]-N-(2,2,2-trifluoroethyl)thiophene-2-sulfonamide] | 10 to 50 nM
23 | COc1ccc(-c2ncc(Cl)c(Nc3cc(C4CC4)[nH]n3)n2)cc1S(N)(=O)=O [Compound 161, 5-[5-chloro-4-[(5-cyclopropyl-1H-pyrazol-3-yl)amino]-pyrimidin-2-yl]-2-methoxy-benzenesulfonamide] | 50 to 100 nM
24 | CC(C)(C)NS(=O)(=O)c1ccc(-c2ncc(C(F)(F)F)c(Nc3cc(C4CC4)n[nH]3)n2)s1 [Compound 162, 5-[4-[(5-cyclopropyl-2H-pyrazol-3-yl)amino]-5-(trifluoromethyl)pyrimidin-2-yl]-N-tert-butyl-thiophene-2-sulfonamide] | 500 to 1000 nM
25 | CC(C)(C)NS(=O)(=O)c1ccc(-c2ncc(CO)c(Nc3cc(C4CC4)[nH]n3)n2)s1 [Compound 163, N-tert-butyl-5-(4-(5-cyclopropyl-1H-pyrazol-3-ylamino)-5-(hydroxymethyl)pyrimidin-2-yl)thiophene-2-sulfonamide] | 100 to 500 nM
26 | Clc1cnc(-c2ccco2)nc1Nc1cc(C2CC2)[nH]n1 [Compound 164, 5-chloro-N-(5-cyclopropyl-1H-pyrazol-3-yl)-2-(furan-2-yl)pyrimidin-4-amine] | 100 to 500 nM
27 | CC(=O)NCCNS(=O)(=O)c1ccc(-c2ncc(Br)c(Nc3cc(C4CC4)[nH]n3)n2)s1 [Compound 166, N-(2-(5-(5-bromo-4-(5-cyclopropyl-1H-pyrazol-3-ylamino)pyrimidin-2-yl)thiophene-2-sulfonamido)ethyl)acetamide] | 10 to 50 nM
28 | C#Cc1cnc(N2CCCNCC2)nc1Nc1cc(C2CC2)n[nH]1 [Compound 174, N-(5-cyclopropyl-2H-pyrazol-3-yl)-2-(1,4-diazepan-1-yl)-5-ethynyl-pyrimidin-4-amine] | 2000 to 4000 nM
29 | C#Cc1cnc(N2CCNCC2)nc1Nc1cc(C2CC2)n[nH]1 [Compound 175] | 2000 to 4000 nM
30 | N#Cc1ccc(-c2ncc(Br)c(Nc3cc(C4CC4)[nH]n3)n2)s1 [Compound 176, 5-[5-bromo-4-[(5-cyclopropyl-1H-pyrazol-3-yl)amino]-pyrimidin-2-yl]thiophene-2-carbonitrile] | 1 to 10 nM
31 | C#Cc1cnc(N2CCN(C)CC2)nc1Nc1cc(C2CC2)[nH]n1 [Compound 177, N-(5-cyclopropyl-1H-pyrazol-3-yl)-5-ethynyl-2-(4-methylpiperazin-1-yl)-pyrimidin-4-amine] | 2000 to 4000 nM
32 | C#Cc1cnc(N2CCCC2)nc1Nc1cc(C2CC2)[nH]n1 [Compound 178, N-(5-cyclopropyl-1H-pyrazol-3-yl)-5-ethynyl-2-pyrrolidin-1-yl-pyrimidin-4-amine] | 100 to 500 nM
33 | NS(=O)(=O)c1ccc(-c2ncc(C(=O)O)c(Nc3cc(C4CC4)[nH]n3)n2)s1 [Compound 179, 4-(5-cyclopropyl-1H-pyrazol-3-ylamino)-2-(5-sulfamoylthiophen-2-yl)pyrimidine-5-carboxylic acid] | 500 to 1000 nM
34 | C#Cc1cnc(-c2ccc(S(=O)(=O)NCCNC(C)=O)s2)nc1Nc1cc(C2CC2)[nH]n1 [Compound 181, N-[2-[[5-[4-[(5-cyclopropyl-1H-pyrazol-3-yl)amino]-5-ethynyl-pyrimidin-2-yl]-2-thienyl]sulfonylamino]ethyl]acetamide] | 10 to 50 nM
35 | Clc1cnc(-c2ccccn2)nc1Nc1cc(C2CC2)[nH]n1 [Compound 182, 5-chloro-N-(5-cyclopropyl-1H-pyrazol-3-yl)-2-(pyridin-2-yl)pyrimidin-4-amine] | 1000 to 2000 nM
36 | C#Cc1cnc(-c2ccc(S(=O)(=O)NCCNC(=O)C(C)(C)C)s2)nc1Nc1cc(C2CC2)n[nH]1 [Compound 183, N-(2-(5-(4-(5-cyclopropyl-1H-pyrazol-3-ylamino)-5-ethynylpyrimidin-2-yl)thiophene-2-sulfonamido)ethyl)pivalamide] | 50 to 100 nM
37 | C#Cc1cnc(N2CC[C@@H](N)C2)nc1Nc1cc(C2CC2)n[nH]1 [Compound 184, 2-(3-aminopyrrolidin-1-yl)-N-(5-cyclopropyl-2H-pyrazol-3-yl)-5-ethynyl-pyrimidin-4-amine] | > 4000 nM
